Measured values: US11932636B2, “RAD51 inhibitors” (Cyteir Therapeutics, Inc., priority 2019, dated 2024)

Test system: Daudi cells (AID positive)
Assay: Compound primary screening: cell death in AID positive Daudi cells (Cell-Titer Glo, Day 7)
Assay type: cell-based
Conditions: Homo sapiens, 168 h; Daudi cells, AID positive; cell death on Day 7, Cell-Titer Glo; read-out: Cellular activity in AID + (Daudi)
Method in brief: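 AID-positive Daudi cells were seeded at 1250 cells per well and treated with serially diluted compound delivered from a DMSO/media master plate. Cultures were incubated at 37 °C, and cell death was measured on Day 7 with Cell-Titer Glo luminescence.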

| SMILES | EC50 |
| --- | --- |
| CCNS(=O)(=O)c1cc(Nc2ccc(C(C)C)nn2)ccc1-c1cnc([C@H]2CC[C@H](NC(=O)OC(C)C)CC2)s1 [Compound 143, isopropyl trans-N-[4-[5-[2-(ethylsulfamoyl)-4-[(6-isopropylpyridazin-3-yl)amino]phenyl]thiazol-2-yl]cyclohexyl]carbamate] | < 100 nM |
| CCNS(=O)(=O)c1cc(NC2CNC2)ccc1-c1cnc([C@H]2CC[C@H](NC(=O)OC(C)C)CC2)s1 [Compound 144, isopropyl trans-N-[4-[5-[4-(azetidin-3-ylamino)-2-(ethyl-sulfamoyl)phenyl]thiazol-2-yl]cyclohexyl]carbamate] | 100 to 1000 nM |
| CCNS(=O)(=O)c1cc(NC2CN(CC(C)C)C2)ccc1-c1cnc([C@H]2CC[C@H](NC(=O)OC(C)C)CC2)s1 [Compound 145, isopropyl trans-N-[4-[5-[2-(ethylsulfamoyl)-4-[(1-isobutyl-azetidin-3-yl)amino]phenyl]thiazol-2-yl]cyclohexyl]carbamate] | 100 to 1000 nM |
| CCNS(=O)(=O)c1cc(NC2CN(C(=O)C(C)C)C2)ccc1-c1cnc([C@H]2CC[C@H](NC(=O)OC(C)C)CC2)s1 [Compound 146, isopropyl trans-N-[4-[5-[2-(ethylsulfamoyl)-4-[[1-(2-methylpropanoyl)azetidin-3-yl]amino]phenyl]thiazol-2-yl]cyclohexyl]carbamate] | < 100 nM |
| CCNS(=O)(=O)c1cc(NC2(C)CNC2)ccc1-c1cnc([C@H]2CC[C@H](NC(=O)OC(C)C)CC2)s1 [Compound 147, isopropyl trans-N-[4-[5-[2-(ethylsulfamoyl)-4-[(3-methylazetidin-3-yl)amino]phenyl]thiazol-2-yl]cyclohexyl]carbamate] | 1000 to 10000 nM |
| CC(C)OC(=O)N[C@H]1CC[C@H](c2ncc(-c3ccc(Nc4ncc[nH]4)cc3S(=O)(=O)N3CCC3)s2)CC1 [Compound 148, isopropyl trans-N-[4-[5-[2-(azetidin-1-ylsulfonyl)-4-(1H-imidazol-2-ylamino)phenyl]thiazol-2-yl]cyclohexyl]carbamate] | < 100 nM |
| CCNS(=O)(=O)c1cc(Nc2cn[nH]n2)ccc1-c1cnc([C@H]2CC[C@H](NC(=O)OC(C)C)CC2)s1 [Compound 149, isopropyl trans-N-[4-[5-[2-(ethylsulfamoyl)-4-(2H-triazol-4-ylamino)phenyl]thiazol-2-yl]cyclohexyl]carbamate] | < 100 nM |
| CCNS(=O)(=O)c1cc(N(C)c2ncc[nH]2)ccc1-c1cnc([C@H]2CC[C@H](NC(=O)OC(C)C)CC2)s1 [Compound 150, isopropyl trans-N-[4-[5-[2-(ethylsulfamoyl)-4-[1H-imidazol-2-yl(methyl)amino]phenyl]thiazol-2-yl]cyclohexyl]carbamate] | 100 to 1000 nM |
| CC(C)OC(=O)N[C@H]1CC[C@H](c2ncc(-c3ccc(Nc4nnc[nH]4)cc3S(=O)(=O)NC(C)(C)C)s2)CC1 [Compound 151, isopropyl trans-N-[4-[5-[2-(tert-butylsulfamoyl)-4-(4H-1,2,4-triazol-3-ylamino)phenyl]thiazol-2-yl]cyclohexyl]carbamate] | < 100 nM |
| CCNS(=O)(=O)c1cc(Nc2nnc[nH]2)ccc1-c1cnc([C@H]2CC[C@H](NC(=O)OC(C)C)CC2)s1 [Compound 152, isopropyl trans-N-[4-[5-[2-(ethylsulfamoyl)-4-(4H-1,2,4-triazol-3-ylamino)phenyl]thiazol-2-yl]cyclohexyl]carbamate] | < 100 nM |
| CC(C)OC(=O)N[C@H]1CC[C@H](c2ncc(-c3ccc(Nc4ncco4)cc3S(=O)(=O)N3CCCC3)s2)CC1 [Compound 153, isopropyl trans-[4-[5-[4-(oxazol-2-ylamino)-2-pyrrolidin-1-ylsulfonyl-phenyl]thiazol-2-yl]cyclohexyl]carbamate] | < 100 nM |
| CCNS(=O)(=O)c1cc(Nc2nccn2C(C)C)ccc1-c1cnc([C@H]2CC[C@H](NC(=O)OC(C)C)CC2)s1 [Compound 154, isopropyl trans-N-[4-[5-[2-(ethylsulfamoyl)-4-[(1-isopropylimidazol-2-yl)amino]phenyl]thiazol-2-yl]cyclohexyl]carbamate] | < 100 nM |
| CCNS(=O)(=O)c1cc(Nc2ccnc(Cl)n2)ccc1-c1cnc([C@H]2CC[C@H](NC(=O)OC(C)C)CC2)s1 [Compound 155, isopropyl trans-N-[4-[5-[4-[(2-chloropyrimidin-4-yl)amino]-2-(ethylsulfamoyl)phenyl]thiazol-2-yl]cyclohexyl]carbamate] | 100 to 1000 nM |
| CCNS(=O)(=O)c1cc(Nc2ccnc(=O)[nH]2)ccc1-c1cnc([C@H]2CC[C@H](NC(=O)OC(C)C)CC2)s1 [Compound 156, isopropyl trans-N-[4-[5-[2-(ethylsulfamoyl)-4-[(2-hydroxypyrimidin-4-yl)amino]phenyl]thiazol-2-yl]cyclohexyl]carbamate] | 100 to 1000 nM |
| CCNS(=O)(=O)c1cc(Nc2ccc(CC)nn2)ccc1-c1cnc([C@H]2CC[C@H](NC(=O)OC(C)C)CC2)s1 [Compound 157, isopropyl trans-N-[4-[5-[4-[(6-ethylpyridazin-3-yl)amino]-2-(ethylsulfamoyl)phenyl]thiazol-2-yl]cyclohexyl]carbamate] | < 100 nM |
| CCNS(=O)(=O)c1cc(Nc2cc(CC)cnn2)ccc1-c1cnc([C@H]2CC[C@H](NC(=O)OC(C)C)CC2)s1 [Compound 158, isopropyl trans-N-[4-[5-[4-[(5-ethylpyridazin-3-yl)amino]-2-(ethylsulfamoyl)phenyl]thiazol-2-yl]cyclohexyl]carbamate] | 100 to 1000 nM |
| CCNS(=O)(=O)c1cc(Nc2ccc(Cl)nn2)ccc1-c1cnc([C@H]2CC[C@H](NC(=O)OC(C)C)CC2)s1 [Compound 159, isopropyl trans-N-[4-[5-[4-[(6-chloropyridazin-3-yl)amino]-2-(ethylsulfamoyl)phenyl]thiazol-2-yl]cyclohexyl]carbamate] | < 100 nM |
| CCNS(=O)(=O)c1cc(Nc2ccc(=O)[nH]n2)ccc1-c1cnc([C@H]2CC[C@H](NC(=O)OC(C)C)CC2)s1 [Compound 160, isopropyl trans-N-[4-[5-[2-(ethylsulfamoyl)-4-[(6-oxo-1H-pyridazin-3-yl)amino]phenyl]thiazol-2-yl]cyclohexyl]carbamate] | 100 to 1000 nM |
| CCNS(=O)(=O)c1cc(Nc2cc(C)cnn2)ccc1-c1cnc([C@H]2CC[C@H](NC(=O)OC(C)C)CC2)s1 [Compound 161, isopropyl trans-N-[4-[5-[2-(ethylsulfamoyl)-4-[(5-methylpyridazin-3-yl)amino]phenyl]thiazol-2-yl]cyclohexyl]carbamate] | < 100 nM |
| CCNS(=O)(=O)c1cc(Nc2ccc(C)nn2)ccc1-c1cnc([C@H]2CC[C@H](NC(=O)OC(C)C)CC2)s1 [Compound 162, isopropyl trans-N-[4-[5-[2-(ethylsulfamoyl)-4-[(6-methylpyridazin-3-yl)amino]phenyl]thiazol-2-yl]cyclohexyl]carbamate] | < 100 nM |
| CCNS(=O)(=O)c1cc(Nc2cnc(C(C)C)cn2)ccc1-c1cnc([C@H]2CC[C@H](NC(=O)OC(C)C)CC2)s1 [Compound 163, isopropyl trans-N-[4-[5-[2-(ethylsulfamoyl)-4-[(5-isopropylpyrazin-2-yl)amino]phenyl]thiazol-2-yl]cyclohexyl]carbamate] | 100 to 1000 nM |
| CCNS(=O)(=O)c1cc(Nc2cc(C(C)C)cnn2)ccc1-c1cnc([C@H]2CC[C@H](NC(=O)OC(C)C)CC2)s1 [Compound 164, isopropyl trans-N-[4-[5-[2-(ethylsulfamoyl)-4-[(5-isopropylpyridazin-3-yl)amino]phenyl]thiazol-2-yl]cyclohexyl]carbamate] | 100 to 1000 nM |
| CCNS(=O)(=O)c1cc(NC2(C)COC2)ccc1-c1cnc([C@H]2CC[C@H](NC(=O)OC)CC2)s1 [Compound 165, methyl trans-N-[4-[5-[2-(ethylsulfamoyl)-4-[(3-methyl-oxetan-3-yl)amino]phenyl]thiazol-2-yl]cyclohexyl]carbamate] | 1000 to 10000 nM |
| CCNS(=O)(=O)c1cc(Nc2cn[nH]c2)ccc1-c1cnc([C@H]2CC[C@H](NC(=O)OC)CC2)s1 [Compound 166, methyl trans-N-[4-[5-[2-(ethylsulfamoyl)-4-[(1H-pyrazol-4-yl)amino]phenyl]thiazol-2-yl]cyclohexyl]carbamate] | 1000 to 10000 nM |
| CCNS(=O)(=O)c1cc(Nc2ccn[nH]2)ccc1-c1cnc([C@H]2CC[C@H](NC(=O)OC)CC2)s1 [Compound 167, methyl trans-N-[4-[5-[2-(ethylsulfamoyl)-4-[(1H-pyrazol-5-yl)amino]phenyl]thiazol-2-yl]cyclohexyl]carbamate] | 100 to 1000 nM |
| CCNS(=O)(=O)c1cc(Nc2ccnn2C(C)C)ccc1-c1cnc([C@H]2CC[C@H](NC(=O)OC(C)(C)C)CC2)s1 [Compound 170, tert-butyl trans-N-[4-[5-[2-(ethylsulfamoyl)-4-[(2-isopropylpyrazol-3-yl)amino]phenyl]thiazol-2-yl]cyclohexyl]carbamate] | 100 to 1000 nM |
| CCNS(=O)(=O)c1cc(Nc2cc(C(C)C)ncn2)ccc1-c1cnc([C@H]2CC[C@H](NC(=O)OC(C)C)CC2)s1 [Compound 171, isopropyl trans-N-[4-[5-[2-(ethylsulfamoyl)-4-[(6-isopropylpyrimidin-4-yl)amino]phenyl]thiazol-2-yl]cyclohexyl]carbamate] | 100 to 1000 nM |
| CCNS(=O)(=O)c1cc(Nc2ccc(=O)n(C)n2)ccc1-c1cnc([C@H]2CC[C@H](NC(=O)OC(C)C)CC2)s1 [Compound 172, isopropyl trans-N-[4-[5-[2-(ethylsulfamoyl)-4-[(1-methyl-6-oxo-pyridazin-3-yl)amino]phenyl]thiazol-2-yl]cyclohexyl]carbamate] | 100 to 1000 nM |
| CC(C)OC(=O)N[C@H]1CC[C@H](c2ncc(-c3ccc(Nc4ccc(Cl)nn4)cc3S(=O)(=O)NC(C)(C)C)s2)CC1 [Compound 173, isopropyl trans-N-[4-[5-[2-(tert-butylsulfamoyl)-4-[(6-chloropyridazin-3-yl)amino]phenyl]thiazol-2-yl]cyclohexyl]carbamate] | 100 to 1000 nM |
